pIC50: −log10 of the molar value.

The subject of the experiment is Human Platelet Aggregation. Kind of experiment: in vitro human platelet aggregation using PRP (collagen-induced, light transmittance). In kind it is cell-based. To be noted: aggregation induced with collagen (final concentration: 5 µ g/ml), 37°C. The source says: (Measurement of in vitro Human Platelet Aggregation using PRP)
Healthy male volunteers who had not taken any medicines for at least two weeks were selected as subjects. Blood was collected from the forearm vein of each subject on an empty stomach using a #19 needle and a plastic syringe preliminarily charged with 1/10 volume of a 3.8% sodium citrate solution. Immediately after the blood collection, the syringe was shaken gently to mix the blood with the sodium citrate solution. The mixed blood was centrifuged (1100 rpm, 250 g) at room temperature for 15 minutes and the rotation was stopped without applying the brake. Then, the supernatant was collected with a Komagome type pipette to obtain platelet-rich plasma (PRP). The PRP was stored at room temperature. The blood remaining after centrifuging was further centrifuged (3500 rpm, 1500 g) at room temperature for 15 minutes and the rotation was stopped without applying the brake. The supernatant was collected to obtain platelet-poor plasma (PPP). After the preparation of the PRP, the number of platelets was counted and only samples containing more than 2 x 10^8 of platelets per milliliter were subjected to the following experiments.
Platelet aggregation was measured using an 8-channel platelet aggregation measuring instrument (Hematracer, Nikoh Bioscience, Tokyo, Japan) on the basis of the change in light transmittance through the PRP. First, the PPP and PRP (each 200µl) were placed in glass cuvettes and incubated at 37°C . Thereafter, the transmittance was measured. The transmittance of the PPP was determined as 100% and that of the PRP as 0%. Then, 10µl of physiological saline or a sample-containing physiological saline was added to the PRP and incubated at 37°C for one minute. A collagen solution (10 µ l) at a concentration of […] was added (final concentration: 5 µ g/ml) to induce aggregation and thereafter the transmittance was measured over 7 minutes. After aggregation with collagen and ADP was confirmed, only those samples in which the maximum aggregation with collagen was at least 70% were subjected to the experiment.
The sample was dissolved in physiological saline to give a concentration of 2.2 x 10 ^-2 M and a 2-fold dilution series was prepared for use in the experiments. The samples insoluble in the physiological saline were dissolved in physiological saline containing 10% DMSO (dimethyl sulfoxide).
The results were calculated as follows: [formula]
A graph was constructed by plotting the percent aggregation inhibition against the sample concentration and the concentration at which the aggregation was inhibited by 50% (IC50) was calculated from the graph.
`CCCCC(NC(=O)c1ccc(C(=N)N)cc1)C(C)(C)C(=O)N1CCC(CC(=O)O)CC1` (stereo not drawn) [Example 6, N-(N-4-amidinobenzoyl-β-normal-butyl-α,α-dimethyl-β-alanyl)-4-piperidineacetic acid] had a pIC50 of 7.08.

In the case of `CC(C)(C(=O)N1CCC(CC(=O)O)CC1)C(NC(=O)c1ccc(C(=N)N)cc1)c1ccc2ccccc2c1` (stereo not drawn) [Example 16, N-(N-4-amidinobenzoyl-β-(2-naphthyl)-α,α -dimethyl-β-alanyl)-4-piperidineacetic acid], the pIC50 was 6.48.

The compound `CC(NC(=O)c1ccc(C(=N)N)cc1)C(C)(C)C(=O)N1CCC(CC(=O)O)CC1` (stereo not drawn) [Example 22, N-(N-4-amidinobenzoyl-β-methyl-α,α-dimethyl-β-alanyl)-4-piperidineacetic acid] showed a pIC50 of 6.28. This pIC50 is 0.20 log units lower than that of the compound before.

Turning to `CC(CC(=O)N1CCC(CC(=O)O)CC1)NC(=O)c1ccc(C(=N)N)cc1` (stereo not drawn) [Comparative Example 2, N-(N-4-amidinobenzoyl-β-methyl-β -alanyl)-4-piperidineacetic acid, reference compound], the pIC50 is 4.30.

`COc1ccccc1C(NC(=O)c1ccc(C(=N)N)cc1)C(C)(C)C(=O)N1CCC(CC(=O)O)CC1` (stereo not drawn) [Example 26, N-(N-4-amidinobenzoyl-β-o-methoxyphenyl-α, α-dimethyl-β-alanyl)-4-piperidineacetic acid]: the pIC50 was 6.47.

As for `CCC(CNC(=O)c1ccc(C(=N)N)cc1)C(=O)N1CCC(CC(=O)O)CC1` (stereo not drawn) [Comparative Example 4, N-(N-4-amidinobenzoyl-α-ethyl-β -alanyl)-4-piperidineacetic acid, reference compound], the pIC50 is 6.05. This pIC50 lies 0.42 log units lower than the previous one.

As to `CCCCCC(NC(=O)c1ccc(C(=N)N)cc1)C(C)(C)C(=O)N1CCC(CC(=O)O)CC1` (stereo not drawn) [Example 7, N-(N-4-amidinobenzoyl-β-normal-pentyl-α,α -dimethyl-β-alanyl)-4-piperidineacetic acid], the pIC50 is 6.77.

The compound `CC(C)C(CNC(=O)c1ccc(C(=N)N)cc1)C(=O)N1CCC(CC(=O)O)CC1` (stereo not drawn) [Comparative Example 7, N-(N-4-amidinobenzoyl-α-isopropyl-β-alanyl)-4-piperidineacetic acid, reference compound] gave a pIC50 of 4.77.

In turn, `CCCCNC(=N)c1ccc(C(=O)NC(c2cccc(Cl)c2)C(C)(C)C(=O)N2CCC(CC(=O)O)CC2)cc1` (stereo not shown) [Example 18] had a pIC50 of 6.00.

In turn, `CC(C)(C(=O)N1CCC(CC(=O)O)CC1)C(NC(=O)c1ccc(C(=N)N)cc1)c1ccc(O)cc1` (stereo not drawn) [Example 27, N-(N-4-amidinobenzoyl-β-p-hydroxyphenyl-α, α-dimethyl-β-alanyl)-4-piperidineacetic acid] showed a pIC50 of 6.70. Compared with the last compound, the pIC50 is 0.70 log units higher.

`CC(C)C(C(=O)N1CCC(CC(=O)O)CC1)C(/C=C/c1ccccc1)NC(=O)c1ccc(C(=N)N)cc1` (stereo not drawn) [Comparative Example 9, N-(N-4-amidinobenzoyl-β-trans-styryl-α-isopropyl-β-alanyl)-4-piperidineacetic acid, reference compound] had a pIC50 of 4.05. This pIC50 lies 2.65 log units lower than the previous one.

In turn, `CC(C)(C(=O)N1CCC(CC(=O)O)CC1)C(NC(=O)c1ccc(C(=N)N)cc1)c1ccc(Cl)cc1` (stereo not drawn) [Example 25, N-(N-4-amidinobenzoyl-β-p-chlorophenyl-α,α -dimethyl-β-alanyl)-4-piperidineacetic acid] had a pIC50 of 6.32.

As for `CC(C)(C(=O)N1CCC(CC(=O)O)CC1)C(NC(=O)c1ccc(C(=N)N)cc1)c1cccc(Cl)c1` (stereo not drawn) [Example 9, N-(N-4-amidinobenzoyl-β-m-chlorophenyl-α,α -dimethyl-β-alanyl)-4-piperidineacetic acid], the pIC50 was 6.74.

For `CC(C)C(NC(=O)c1ccc(C(=N)N)cc1)C(C)(C)C(=O)N1CCC(CC(=O)O)CC1` (stereo not drawn) [Example 5, N-(N-4-amidinobenzoyl-β-isopropyl-α,α-dimethyl-β-alanyl)-4-piperidineacetic acid], the pIC50 is 6.72.

For `COc1ccc(C(NC(=O)c2ccc(C(=N)N)cc2)C(C)(C)C(=O)N2CCC(CC(=O)O)CC2)cc1` (stereo not drawn) [Example 8, N-(N-4-amidinobenzoyl-β-p-methoxyphenyl-α, α-dimethyl-β-alanyl)-4-piperidineacetic acid], the pIC50 is 6.60.

Take `CC(C)C(C(=O)N1CCC(CC(=O)O)CC1)C(NC(=O)c1ccc(C(=N)N)cc1)c1ccccc1` (stereo not drawn) [Comparative Example 8, N-(N-4-amidinobenzoyl-β-phenyl-α -isopropyl-β-alanyl)-4-piperidineacetic acid, reference compound]: the pIC50 is 4.09.

`CCCCC(NC(=O)c1ccc(C(=N)N)cc1F)C(C)(C)C(=O)N1CCC(CC(=O)O)CC1` (stereo not drawn) [Example 33, N-(N-4-amidino-2-fluorobenzoyl-β-n-butyl-α ,α-dimethyl-β-alanyl)-4-piperidineacetic acid] had a pIC50 of 7.14.

Regarding `CN(C(=O)c1ccc(C(=N)N)cc1)C(c1ccccc1)C(C)(C)C(=O)N1CCC(CC(=O)O)CC1` (stereo not drawn) [Example 21, N-(N-4-amidinobenzoyl-N-methyl-β-phenyl-α, α-dimethyl-β-alanyl)-4-piperidineacetic acid], the pIC50 was 6.48.

Compound `CC=CC(NC(=O)c1ccc(C(=N)N)cc1)C(C)(C)C(=O)N1CCC(CC(=O)O)CC1` (stereo not drawn) [Example 29, N-(N-4-amidinobenzoyl-β-1-propenyl-α,α-dimethyl-β-alanyl)-4-piperidineacetic acid] gave a pIC50 of 7.00.

The values are drawn from EP0800516B1, “FIBRINOGEN RECEPTOR ANTAGONISTS HAVING SUBSTITUTED (b)-AMINO ACID RESIDUES AND PHARMACEUTICAL COMPOSITIONS COMPRISING THE SAME” (Nippon Steel Corporation, priority 1994, dated 1996).
